Test results reported in patent US12195558B2, “Targeted delivery system and methods of use therefor” (SANFORD BURNHAM PREBYS MEDICAL DISCOVERY INSTITUTE, priority 2015, dated 2025).
Bridge positions count the residues as written; N and C are the ends. Ends that are not written are not given here.

Experiments:
[1] = system: orthotopic MCF7 breast tumors; assay: In vivo homing of intravenous FAM-labeled peptide, MCF7 tumors; design: species or system mice; settings: 200 μg FAM-labeled peptide i.v., 2 hours
Procedure: (§1) FIGS. 7A and 7B are photographs depicting in vivo homing of an exemplary TT1 peptide. 200 μg of FAM-labeled TT1 (SEQ ID NO: 3) peptide or control peptide in PBS was intravenously injected to mice bearing orthotopic 4T1 (FIG. 7A) or MCF7 (FIG. 7B) breast tumors. The peptides were allowed to circulate for 2 hours and organs were collected and photographed under white (top panels) or UV (bottom panels) light. Arrows point to the tumors of TT1 (SEQ ID NO: 3)-injected mice. Note robust signal (white in black and white versions and green in color versions of the Figures) indicating homing of TT1 (SEQ ID NO: 3) peptide to the tumor in both models. H: heart; Lu: lung; Li: liver; Ki: kidney; Sp: spleen; T: tumor.

NRP-1 b1b2 domain = target: T1, NRP-1 b1b2 domain (Homo sapiens, UniProt O14786); assay: Binding of peptide-displaying T7 phage to NRP-1 b1b2-coated magnetic beads; settings: 30 minutes at 37° C., p32 versus NRP-1 b1b2 beads
T1 sequence (O14786 273-586 limits assumed): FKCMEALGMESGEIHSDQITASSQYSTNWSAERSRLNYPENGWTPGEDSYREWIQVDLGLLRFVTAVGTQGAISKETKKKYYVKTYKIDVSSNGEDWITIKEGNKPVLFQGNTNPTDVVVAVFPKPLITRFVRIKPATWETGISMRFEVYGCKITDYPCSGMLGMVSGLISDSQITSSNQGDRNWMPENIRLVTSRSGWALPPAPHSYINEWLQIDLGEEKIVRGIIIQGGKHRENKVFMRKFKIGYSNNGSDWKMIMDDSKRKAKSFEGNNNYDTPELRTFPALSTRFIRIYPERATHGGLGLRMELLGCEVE
Procedure: FIG. 9 is a bar graph showing proteolytic switching of binding specificity of an exemplary TT1 peptide (SEQ ID NO: 3). T7 phage displaying an exemplary TT1 peptide (SEQ ID NO: 3) were exposed to increasing concentrations of crystalline trypsin and incubated for 30 minutes at 37° C. After treatment, phage were incubated with magnetic beads coated with either p32 (decending hatching left to right) or NRP-1 b1b2 (ascending hatching left to right) protein, followed by washes to remove unbound phage and quantitation of specifically bound phage.
(§2) Variant peptide-encoding genomic DNA of phage was sequenced and analyzed for the presence of consensus motifs. After two rounds of selection, both linear and cyclic libraries converged to contain an RGXRS (SEQ ID NO: 4) pentapeptide motif (see FIG. 2B). The binding of RGXRS (SEQ ID NO: 4)-displaying phage to p32 was specific, as these phage bound to magnetic beads coated with p32 protein and not to beads coated with ligand-binding b1b2 domain of the cell and tissue penetration receptor NRP-1 or BSA (see FIG. 3).
The p32 binding motif with consensus sequence RGXRS (SEQ ID NO: 4; i.e., the RGXRS (SEQ ID NO: 4) pentapeptide motif) contains a cryptic RGXR CendR element that can be unmasked by a tryptic cleavage. […]

[2] = system: MCF10 breast cancer cells; assay: In vitro binding and internalization of FAM-labeled peptide in MCF10 cells; format: cell-based; settings: 100 μM FAM-labeled peptide, 1 hour at 37° C.
Procedure: (§3) FIGS. 6A and 6B are fluorescence micrographs showing internalization of CKRGARSTC (TT1; SEQ ID NO: 3) peptide in breast tumor cells in vitro. 100 μM FAM-labeled peptides were incubated with 4T1 (FIG. 6A) or MCF10 (FIG. 6B) breast cancer cells for 1 hour at 37° C. in DMEM high glucose/10% serum medium. Cells were washed, fixed, stained with anti-FITC antibody, and MITOTRACKER® (Life Technologies) or phalloidin as indicated. Scale bars: 20 μm.
(§4) The ability of the TT1 Peptide to bind to cultured breast tumor cells was tested in vitro.

p32 [3] = target: T2, p32 (Homo sapiens, UniProt Q07021); assay: Fluorescence polarization assay with synthetic peptides on p32; format: binding; settings: for binding to p32 in fluorescence polarization assay (in words): synthetic peptides
T2 construct: made in house; host or cells: E. coli Rosetta-gami-2 (Novagen)
T2 sequence (Q07021 74-282): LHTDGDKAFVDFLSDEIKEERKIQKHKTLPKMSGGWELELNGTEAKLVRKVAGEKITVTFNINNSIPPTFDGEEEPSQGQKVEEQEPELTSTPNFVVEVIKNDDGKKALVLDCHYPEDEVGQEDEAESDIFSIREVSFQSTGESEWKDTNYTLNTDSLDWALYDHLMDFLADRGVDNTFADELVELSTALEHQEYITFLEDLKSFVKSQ
Text: (§5) FIGS. 4A and 4B are plots showing a comparison of the binding of LyP-1 (SEQ ID NO: 7; diamonds) and TT1 (SEQ ID NO: 3; squares) to p32 in a fluorescence polarization assay. […] NRP-1 was used as a control protein.
FIG. 5 is a plot showing that P32-TT1 (CKRGARSTC; SEQ ID NO: 3) and LyP-1 (SEQ ID NO: 7) peptides competed for binding to the P32 protein. […] Squares: p32-TT1; Diamonds: LyP-1; X: RPARPAR peptide (SEQ ID NO: 14).
(§6) An exemplary RGXRS (SEQ ID NO: 4) pentapeptide motif-containing peptide with the sequence CKRGARSTC (SEQ ID NO: 3) was designated as the […] and used it for further studies. Mutating any amino acid in the consensus motif of TT1 abolished the phage binding to p32. This new peptide conferred about 15-fold stronger phage binding to immobilized p32 protein than did the canonical LyP-1 peptide.

p32 [4] = target: T2, p32; assay: Binding of peptide-displaying T7 phage to p32-coated magnetic beads; settings: phage-displayed peptide; relative to LyP-1
Procedure: FIG. 10 is a bar graph showing that the p32 binding of the RGXR(S/T) motif (SEQ ID NOs: 4 and 5) in the exemplary TT1 peptide (SEQ ID NO: 3) was not dependent on the cyclic structure and compatible with flanking sequences. Phage clones displaying the indicated peptides were incubated in p32-coated magnetic microbeads. After washing to remove non-bound phage, specifically bound phage were quantified.
Milligram quantities of recombinant His-tagged p32 protein were expressed in E. coli and coated onto Ni-NTA magnetic beads, and biopanning was performed using two T7 bacteriophage peptide libraries (cyclic Cx7C and linear X7 library).
as §2, §6

NRP-1 = NRP-1 (Homo sapiens, UniProt O14786); assay: Fluorescence polarization assay on NRP-1 (control protein); format: binding; settings: NRP-1 as control protein
Text: as §5

atherosclerotic plaques = assay: Homing to atherosclerotic plaques in ApoE null mice on high-fat diet; format: in vivo; settings: for homing to and penetration into plaque tissue: 100 mg FAM labeled peptide i.v., one hour
Procedure: ApoE null mice that had been kept on a high-fat diet were intravenously injected with […] of the FAM labeled peptides. One hour later, the mice were perfused through the heart under anesthesia, and tissues were collected. The panels show accumulation of FAM labeled peptides visualized with UV excitation. The center two and right two panels show atherosclerotic aortas that were sectioned at the aortic root level and examined by confocal microscopy.

MDA-MB-231 xenografts = assay: In vivo homing of intravenous peptide, MDA-MB-231 xenografts; design: species or system mice; settings: i.v.
4T1 breast cancer cells = assay: In vitro binding and internalization of FAM-labeled peptide in 4T1 cells; format: cell-based; settings: 100 μM FAM-labeled peptide, 1 hour at 37° C.
Procedure: as §3, §4

[5] = system: orthotopic 4T1 breast tumors; assay: In vivo homing of intravenous FAM-labeled peptide, 4T1 tumors; design: species or system mice; settings: 4T1 syngeneic tumors, 200 μg FAM-labeled peptide i.v., 2 hours
Procedure: as §1

[6] = Aggregation of peptide-coated nanoparticles; format: physicochemical; settings: peptide on nanoparticles
Text: The linear TT1 Peptide was selected for further study as a D[KLAKLAK]2 (SEQ ID NO: 42) conjugate on NWs. The CGKRK (SEQ ID NO: 6) and LyP-1 Peptides were included for comparison.

Sequence of NRP-1 (O14786 22-923): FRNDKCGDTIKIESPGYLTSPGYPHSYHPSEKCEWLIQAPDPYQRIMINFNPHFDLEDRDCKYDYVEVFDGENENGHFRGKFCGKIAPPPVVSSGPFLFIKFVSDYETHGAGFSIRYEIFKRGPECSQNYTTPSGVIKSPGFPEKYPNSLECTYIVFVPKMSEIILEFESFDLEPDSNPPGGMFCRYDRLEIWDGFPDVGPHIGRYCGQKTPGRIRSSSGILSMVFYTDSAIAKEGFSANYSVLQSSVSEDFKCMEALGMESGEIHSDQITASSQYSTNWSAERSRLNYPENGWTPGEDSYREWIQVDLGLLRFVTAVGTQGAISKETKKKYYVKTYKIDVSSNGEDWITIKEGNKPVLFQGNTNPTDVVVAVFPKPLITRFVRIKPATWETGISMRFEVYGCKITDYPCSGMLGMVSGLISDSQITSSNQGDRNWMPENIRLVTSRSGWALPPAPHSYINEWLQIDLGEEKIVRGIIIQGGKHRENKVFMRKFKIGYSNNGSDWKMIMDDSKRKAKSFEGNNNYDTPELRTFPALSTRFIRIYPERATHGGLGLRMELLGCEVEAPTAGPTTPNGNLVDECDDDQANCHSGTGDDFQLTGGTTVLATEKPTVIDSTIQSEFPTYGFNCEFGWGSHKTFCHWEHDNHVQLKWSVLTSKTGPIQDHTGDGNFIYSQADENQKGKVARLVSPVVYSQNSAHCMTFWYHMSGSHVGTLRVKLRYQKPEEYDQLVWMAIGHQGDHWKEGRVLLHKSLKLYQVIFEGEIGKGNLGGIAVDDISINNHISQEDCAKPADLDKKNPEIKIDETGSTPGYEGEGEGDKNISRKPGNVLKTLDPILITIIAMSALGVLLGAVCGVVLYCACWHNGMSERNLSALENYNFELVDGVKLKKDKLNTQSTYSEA

CKRGARSTC (disulfide 1-9 (inferred)) [TT1 Peptide]
tumor homing [1]: homed to breast tumors
tumor homing ([1]; listed as TT1): robust signal
binding specificity after exposure to trypsin (NRP-1 b1b2 domain): affinity switching from p32 to NRP-1 b1b2
cell surface binding and internalization [2]: rapidly bound to the surface of 4T1 and MCF10 breast cancer cells and was internalized over time
inhibition of binding of labeled TT1 to P32 by unlabeled peptide (p32 [3]; competition, fluorescence polarization): could be inhibited
binding site on p32 (p32 [3]; fluorescence polarization): shared the binding site on p32 with the LyP-1 peptide
affinity for p32 (in words) (p32 [3]; method not stated at the place): high affinity for p32
binding to p32 in fluorescence polarization assay (in words) (p32 [3]): specific
binding to p32 in fluorescence polarization assay (in words) (p32 [3]; listed as TT1): bound to p32 with a higher affinity than LyP-1
phage binding to immobilized p32 protein, fold stronger than the canonical LyP-1 peptide (p32 [4]): about 15 fold
binding to NRP-1 in fluorescence polarization assay (in words) (NRP-1): only background binding
homing to and penetration into plaque tissue (atherosclerotic plaques): homed to and penetrated atherosclerotic lesions
homing to and penetration into plaque tissue (atherosclerotic plaques; listed as TT1): homed to and penetrated into plaque tissue as well as or better than LyP-1
plaque homing compared with LyP-1 peptide (atherosclerotic plaques; ApoE null mice on high-fat diet): more robust than seen with the LyP-1 peptide
tumor homing (MDA-MB-231 xenografts): homed to breast tumors
cell surface binding and internalization (4T1 breast cancer cells): rapidly bound to the surface of 4T1 and MCF10 breast cancer cells and was internalized over time
tumor homing [5]: homed to breast tumors
tumor homing ([5]; listed as TT1): robust signal
aggregation of the peptide-coated nanoparticles [6]: tended to cause aggregation of the peptide-coated nanoparticles
